Experimental findings from paper PMC11851430, “Workflow for E3 Ligase Ligand Validation for PROTAC Development” (ACS Chemical Biology, 2025) are described below.

Assay [1] deals with T1, ITK (Homo sapiens, UniProt Q08881).
T1 construct: endogenous in cells; host or cells: Jurkat
T1 sequence (Q08881 1-620): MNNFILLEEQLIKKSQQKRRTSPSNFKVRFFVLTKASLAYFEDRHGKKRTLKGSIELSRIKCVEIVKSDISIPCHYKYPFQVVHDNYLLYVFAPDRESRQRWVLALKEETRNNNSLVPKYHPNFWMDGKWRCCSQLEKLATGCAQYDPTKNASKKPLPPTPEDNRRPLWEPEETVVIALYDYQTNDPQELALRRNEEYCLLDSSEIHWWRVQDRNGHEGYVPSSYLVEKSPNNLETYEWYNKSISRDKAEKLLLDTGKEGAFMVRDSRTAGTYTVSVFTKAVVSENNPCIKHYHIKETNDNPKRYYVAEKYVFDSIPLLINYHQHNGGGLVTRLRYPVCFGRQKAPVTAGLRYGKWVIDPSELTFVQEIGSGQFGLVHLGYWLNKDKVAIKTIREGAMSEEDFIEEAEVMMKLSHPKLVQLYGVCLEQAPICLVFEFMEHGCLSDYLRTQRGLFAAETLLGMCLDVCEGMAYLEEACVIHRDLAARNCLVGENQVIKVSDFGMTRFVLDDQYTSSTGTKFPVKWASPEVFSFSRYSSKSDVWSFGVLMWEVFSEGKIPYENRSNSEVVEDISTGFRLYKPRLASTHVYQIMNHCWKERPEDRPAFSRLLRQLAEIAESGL
Briefly: Western blot assay. It is filed as cell-based. Particulars: Jurkat cells, 6 h. The method, then:
Two mL of Jurkat cells were seeded into 6 well plates (Greiner) at a density of 5·10 5 cells/mL.
The following day, cells were treated with compounds at according concentrations or DMSO for 6 hours and then lysed with 6 M Urea at 4 °C for 20 minutes. The lysates were centrifuged for 15 minutes at 16000 g and the supernatant was collected to perform the Western-Blot.
Protein quantification was performed using nanodrop One. The SDS samples were prepared […]
The samples were separated by a BIS-TRIS polyacrylamide gel polyacrylamide gel, 100 V for 1:45) followed by transfer to PVDF membranes (Millipore) at 350 mA for 140 minutes. The membranes were blocked using 5%wt/vol BSA (in TBS-T, 20 mM Tris-HCl, pH 7.5, 150 mM NaCl and 0.1% (vol/vol) Tween 20) at room temperature for 1 hour.
The blots were incubated with respective primary antibodies at 1:1000 dilution (Cell Signaling technologies: Aurora A (D3E4Q), ITK (2F12) and GAPDH (D4C6R)) at 4 °C overnight. The blots were washed with TBS-T thrice and incubated with 1:5000 dilution of horseradish peroxidase (HRP)-labelled respective secondary antibodies (Cell Signaling technologies, Anti- […]
The blots were washed with TBS-T thrice and then incubated with chemiluminescent HRP substrate (Bio-Rad) for 2 minutes. The blots were imaged and the signals were detected using the Amersham ImageQuant 800 (Cytiva).
Cell culture. Human MV4-11 ([…]) and human Jurkat ([…]) cells were cultured in RPMI- […]
°C in 5% CO2. Both media were supplemented with 10% FBS and 1% penicillin/streptomycin. […]
A general note: A western blot detects proteins with antibodies after separation by electrophoresis.

In assay [2] the target is T2, VRK1A (Homo sapiens, UniProt Q99986).
T2 construct: purchased in-house DSF panel (SGC-style construct names; the trailing A/B is a construct suffix)
T2 sequence (Q99986 1-396): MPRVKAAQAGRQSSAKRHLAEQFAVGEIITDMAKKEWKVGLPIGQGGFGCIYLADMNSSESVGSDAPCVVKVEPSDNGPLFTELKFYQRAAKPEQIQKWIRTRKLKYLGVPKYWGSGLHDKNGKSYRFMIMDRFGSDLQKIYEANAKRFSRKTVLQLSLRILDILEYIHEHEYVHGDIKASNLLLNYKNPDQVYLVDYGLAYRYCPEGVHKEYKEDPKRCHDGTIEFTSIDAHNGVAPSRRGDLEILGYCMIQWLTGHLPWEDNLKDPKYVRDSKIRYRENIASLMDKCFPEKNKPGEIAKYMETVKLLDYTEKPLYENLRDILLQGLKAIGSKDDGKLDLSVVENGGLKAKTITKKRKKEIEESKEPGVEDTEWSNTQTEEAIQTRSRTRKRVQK
Kind of assay: DSF assay. It is filed as binding. Particulars: 20 µM compound.

Assay [3] deals with T3, AAK1 (Homo sapiens, UniProt Q2M2I8).
T3 construct: endogenous in cells; host or cells: Jurkat (Clone E6.1) cell lysate
Kind of assay: Kinobeads selectivity profiling. It is filed as binding. As to conditions: Jurkat lysate, dose series given in nM; for Kd: read-out: Kd (apparent dissociation constant, corrected for protein depletion). The method, then:
Excitation and emission filters […]
curve. […] Measurements were
Kinobeads selectivity profiling of PROTACs
(Multiplexion, Heidelberg, Germany).
The cell lysate was ultracentrifuged and diluted
NaF, 1 mM DTT, protease inhibitors and phosphatase inhibitors to a final concentration of 5 mg/ml as determined by Bradford assay. For selectivity profiling of compounds the cell lysate (2.5 mg of total proteins per pulldown) was pre-incubated with increasing compound […]
µM) for 45 min at 4 °C in an end-over-end shaker. Subsequently, lysates were incubated with Kinobeads epsilon (17 µL settled beads) for 30 min at 4 °C. To assess the degree of protein depletion from the lysates by Kinobeads, the flow-through of the DMSO control was recovered […]
for a pulldown of pulldown experiment where the lysate was incubated a second time with fresh Kinobeads. Beads were washed in 3 steps with buffer containing 0.4%, 0.2% and no NP40.
Bound proteins were reduced with 50 mM DTT in 8 M Urea, 40 mM Tris-HCl pH 7.4 for 30 min at room temperature. After alkylation with 55 mM chloroacetamide (CAA), the Urea concentration was reduced to 1 – 2 M and proteins were digested using trypsin. Acidified peptides were desalted and concentrated using SepPak tC18 µEluation plates (Waters).
Samples were frozen, dried by vacuum centrifugation and stored at -20 °C.
LC-MS2 analysis. Peptides were measured on a Dionex Ultimate3000 nano HPLC coupled online to an Orbitrap Fusion Lumos (Thermo Fisher Scientific) mass spectrometer.
Peptides were dissolved in 0.1% formic acid and delivered to a trap column (ReproSil-pur C18-AQ, 5 μm, Dr. Maisch, 20 mm × 75 μm, self-packed) at a flow rate of 5 μL/min in LC solvent A (0.1 % formic acid).4 After 10 min of loading, peptides were transferred to an analytical column (ReproSil Gold C18-AQ, 3 μm, Dr. Maisch, 400 mm × 75 μm, self-packed) and separated using […]
acetonitrile) in LC solvent A.
The Orbitrap Fusion Lumos was operated as follows: positive polarity; spray voltage 2.1 kV, […]
A full-scan (MS1) was recorded from 360 to 1300 m/z with a resolution of 60,000 in the Orbitrap in profile mode. The MS1 AGC target was set to 4e5 and the maxIT was set to 50 ms, RF lens value was set to 50%. Based on the full scans, precursors were targeted for the MS/MS scans […]
intensity exceeded 2.5e4. The dynamic exclusion was set to 30 sec and exclude isotopes was switched on. The MS2 quadrupole isolation window was set to 1.7 m/z. Peptide fragmentation occurred in the ion routing multipole (IRM) by HCD with a fixed collision energy mode, the […]

T3 sequence (Q2M2I8 whole entry): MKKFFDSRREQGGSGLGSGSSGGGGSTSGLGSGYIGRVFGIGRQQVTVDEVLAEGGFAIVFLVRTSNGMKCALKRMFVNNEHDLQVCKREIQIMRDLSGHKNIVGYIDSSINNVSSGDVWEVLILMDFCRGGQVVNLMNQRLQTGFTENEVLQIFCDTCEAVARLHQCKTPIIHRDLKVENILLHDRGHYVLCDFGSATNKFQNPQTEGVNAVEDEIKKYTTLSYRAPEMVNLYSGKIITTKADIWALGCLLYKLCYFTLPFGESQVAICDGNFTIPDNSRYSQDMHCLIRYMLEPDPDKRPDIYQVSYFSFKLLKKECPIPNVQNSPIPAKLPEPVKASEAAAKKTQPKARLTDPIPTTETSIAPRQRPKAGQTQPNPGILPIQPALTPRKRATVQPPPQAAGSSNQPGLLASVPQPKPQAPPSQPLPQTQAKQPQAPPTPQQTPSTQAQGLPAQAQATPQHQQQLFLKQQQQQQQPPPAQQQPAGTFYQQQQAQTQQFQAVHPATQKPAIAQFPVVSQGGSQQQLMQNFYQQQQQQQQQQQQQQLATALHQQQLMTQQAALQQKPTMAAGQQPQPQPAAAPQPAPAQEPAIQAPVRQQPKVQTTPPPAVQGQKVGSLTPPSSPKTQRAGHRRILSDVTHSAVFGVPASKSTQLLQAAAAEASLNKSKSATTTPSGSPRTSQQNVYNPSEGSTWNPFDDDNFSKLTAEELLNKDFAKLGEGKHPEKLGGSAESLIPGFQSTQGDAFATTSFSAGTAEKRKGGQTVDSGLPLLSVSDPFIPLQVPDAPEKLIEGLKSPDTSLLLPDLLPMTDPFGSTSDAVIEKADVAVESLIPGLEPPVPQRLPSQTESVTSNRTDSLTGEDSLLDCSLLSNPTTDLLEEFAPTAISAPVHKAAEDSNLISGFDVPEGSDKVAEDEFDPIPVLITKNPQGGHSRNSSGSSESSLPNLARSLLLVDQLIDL

On to `Cc1ncsc1-c1ccc(CNC(=O)[C@@H]2C[C@H](O)CN2C(=O)[C@@H](NC(=O)CCOCCOCCOCCN2CCN(c3cc(Nc4cc(C5CC5)[nH]n4)nc(Nc4ccc(CC#N)cc4)n3)CC2)C(C)(C)C)cc1` [4-a^neg], for which, in assay [1], the “ITK protein levels (Western blot)” value is “did not cause any degradation of ITK”.

A word on the ΔTm: it is the shift of the melting midpoint relative to a reference. For the molecule `CC(C)(C)OC(=O)NCCOCCOCCOCCOCCC(=O)N1CCN(c2cc(Nc3cc(C4CC4)[nH]n3)nc(Nc3ccc(CC#N)cc3)n2)CC1` [4-L], the ΔTm at 20 µM in assay [2] was determined as 0.29 °C. In addition, in assay [3], the Kd worked out at 6.67 nM.

Turning to `CCOC(=O)c1cc(Nc2cc(C3CC3)[nH]n2)nc(Nc2ccc(CC#N)cc2)n1` [compound 5], the shift in melting temperature (ΔTm) at 20 µM in assay [2] amounted to 0.7 °C. For the same molecule, the “Kd (apparent dissociation constant, corrected for protein depletion)” value in assay [3] was 62.7409.

Consider `Cc1ncsc1-c1ccc(CNC(=O)[C@@H]2C[C@@H](O)CN2C(=O)[C@@H](NC(=O)CCOCCOCCOCCN2CCN(c3cc(Nc4cc(C5CC5)[nH]n4)nc(Nc4ccc(CC#N)cc4)n3)CC2)C(C)(C)C)cc1` [4-a], for which, in assay [1], the “ITK protein levels (Western blot)” value was “dose-dependent degradation of ITK”.

As for `Cc1ncsc1-c1ccc(CNC(=O)[C@@H]2C[C@@H](O)CN2C(=O)[C@@H](NC(=O)CCOCCOCCOCCOCCN2CCN(c3ccc(Nc4ncc(Cl)c(Nc5ccccc5C(N)=O)n4)cc3)CC2)C(C)(C)C)cc1` [6-b], the “ITK protein levels (Western blot)” value in assay [1] was “dose-dependent degradation of ITK”.

In the case of `Cc1ncsc1-c1ccc(CNC(=O)[C@@H]2C[C@H](O)CN2C(=O)[C@@H](NC(=O)CCOCCOCCOCCOCCN2CCN(c3ccc(Nc4ncc(Cl)c(Nc5ccccc5C(N)=O)n4)cc3)CC2)C(C)(C)C)cc1` [6-b^neg], the “ITK protein levels (Western blot)” value in assay [1] is “did not cause any degradation of ITK”.

As for `CC(C)(C)OC(=O)NCCCOCCOCCOCCCNC(=O)c1cc(Nc2cc(C3CC3)[nH]n2)nc(Nc2ccc(CC#N)cc2)n1` [5-L], the thermal shift (ΔTm) at 20 µM in assay [2] was found to be 0.51 °C. Further, in assay [3], the Kd came to 35.5 nM.
